Assay results reported in ChEMBL document CHEMBL1143327, “Carbonic anhydrase inhibitors: inhibition studies of a coral secretory isoform with inorganic anions” (Bioorg Med Chem Lett, 2009).

Molecular target: Carbonic anhydrase 4 (Homo sapiens, UniProt P22748)
Sequence (P22748 whole entry): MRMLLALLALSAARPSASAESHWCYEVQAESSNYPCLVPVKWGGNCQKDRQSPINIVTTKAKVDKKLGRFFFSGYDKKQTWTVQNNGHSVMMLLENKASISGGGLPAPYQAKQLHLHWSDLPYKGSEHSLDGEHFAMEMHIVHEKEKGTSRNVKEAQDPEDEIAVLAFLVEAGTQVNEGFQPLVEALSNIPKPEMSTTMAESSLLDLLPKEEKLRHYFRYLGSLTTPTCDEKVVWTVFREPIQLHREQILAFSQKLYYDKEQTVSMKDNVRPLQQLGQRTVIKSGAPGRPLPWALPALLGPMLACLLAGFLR

SMILES	Ki [µM]
NS(=O)(=O)O [SULFAMATE]	90
OB(O)c1ccccc1 [PHENYLBORONIC ACID]	820
